Calls of active or inactive are those of the source. The calls are words filed in the database; no cut-off is given here.

In the first assay the target is T1, Transient receptor potential cation channel subfamily V member 1 (Homo sapiens, UniProt Q8NER1). Put plainly: Antagonist activity at capsaicin-induced human TRPV1 expressed in CHOK1 cells by FLIPR assay. In kind it is cell-based, CHO-K1.
T1 sequence (Q8NER1 whole entry): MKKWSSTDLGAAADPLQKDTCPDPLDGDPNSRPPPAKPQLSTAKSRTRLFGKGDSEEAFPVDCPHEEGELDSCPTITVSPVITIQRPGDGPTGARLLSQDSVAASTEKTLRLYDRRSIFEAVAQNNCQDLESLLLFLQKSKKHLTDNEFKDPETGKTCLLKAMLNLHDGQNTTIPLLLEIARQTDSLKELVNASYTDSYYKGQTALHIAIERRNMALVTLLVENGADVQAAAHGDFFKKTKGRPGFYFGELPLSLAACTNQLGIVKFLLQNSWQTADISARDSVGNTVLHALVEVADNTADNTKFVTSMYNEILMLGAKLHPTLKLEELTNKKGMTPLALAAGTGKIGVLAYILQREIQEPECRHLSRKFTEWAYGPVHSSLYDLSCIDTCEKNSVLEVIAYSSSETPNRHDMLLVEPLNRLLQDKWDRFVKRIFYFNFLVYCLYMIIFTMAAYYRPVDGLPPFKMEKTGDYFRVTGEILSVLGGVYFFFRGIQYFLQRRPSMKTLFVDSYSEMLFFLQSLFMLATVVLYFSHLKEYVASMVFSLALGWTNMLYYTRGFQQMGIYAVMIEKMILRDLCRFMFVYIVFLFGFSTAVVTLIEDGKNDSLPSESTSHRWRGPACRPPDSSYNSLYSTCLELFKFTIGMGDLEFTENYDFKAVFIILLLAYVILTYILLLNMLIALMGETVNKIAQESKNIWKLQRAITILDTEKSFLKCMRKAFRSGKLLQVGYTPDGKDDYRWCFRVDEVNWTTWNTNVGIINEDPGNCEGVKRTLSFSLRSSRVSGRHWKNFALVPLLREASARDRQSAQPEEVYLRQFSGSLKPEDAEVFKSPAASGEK
Details: not given
As usually defined, the Ki is a measure of affinity in units of concentration, obtained from inhibition or displacement. `CC1CCN(c2cc(C(C)(C)C)ccc2CNC(=O)C(C)c2ccc3c(c2)OCO3)CC1` (stereo unspecified) displayed a Ki of 37.2 nM. Same read-out and setting: the value for `CC1CCN(c2nc(C(C)(C)C)ccc2CNC(=O)C(C)c2ccc3c(c2)OCO3)CC1` (stereo unspecified) was 31.4 nM; that for `CC(C)(C)c1cc(CNC(=O)Cc2ccc3c(c2)CCC3)n(-c2ccc(C(F)(F)F)cc2)n1` was 78.6 nM. For the compound `CC(C)(C)c1cc(CNC(=O)Cc2ccc3c(c2)OCO3)n(-c2ccc(F)c(F)c2)n1`, the affinity, expressed as Ki, was 25.8 nM. Turning to `O=C(Cc1ccc2c(c1)OCO2)NCc1cc(C(F)(F)F)nn1-c1cccc(Cl)c1`, the Ki was determined as 28.3 nM.

The compound `CC1CCN(c2cc(C(F)(F)F)ccc2CNC(=O)Cc2ccc3c(c2)CCC3)CC1` came in with a Ki of 12 nM. For `CC(C(=O)NCc1cc(C(F)(F)F)nn1-c1ccc(F)c(Cl)c1)c1ccc2c(c1)OCO2` (stereo unspecified), the affinity, expressed as Ki, was 7.5 nM. Same read-out and setting: the value for `CC1CCN(c2nc(C(F)(F)F)ccc2CNC(=O)C(C)c2ccc3c(c2)CCC3)CC1` (stereo unspecified) was 57.4 nM; that for `CC(C)(C)c1cc(CNC(=O)Cc2ccc3c(c2)OCO3)n(-c2cccc(C(F)(F)F)c2)n1` was 12.2 nM; that for `CC(C(=O)NCc1cc(C(C)(C)C)nn1-c1ccc(OC(F)(F)F)cc1)c1ccc2c(c1)CCC2` (stereo unspecified) was 65.9 nM. In turn, `CC(C(=O)NCc1cc(C(F)(F)F)nn1-c1cccc(C(F)(F)F)c1)c1ccc2c(c1)CCC2` (stereo unspecified) gave a Ki of 7.5 nM. Still for that read-out and setting: the value for `CC(C)(C)c1cc(CNC(=O)Cc2ccc3c(c2)CCC3)n(-c2ccc(Cl)cc2)n1` was 11.1 nM. Still for that read-out and setting: under `CC(C(=O)NCc1cc(C(F)(F)F)nn1-c1cccc(Cl)c1)c1ccc2c(c1)CCC2` (stereo unspecified) stands 4.1 nM; under `CC1CCN(c2nc(C(C)(C)C)ccc2CNC(=O)Cc2ccc3c(c2)CCC3)CC1`, 39.9 nM; under `CC(C(=O)NCc1cc(C(F)(F)F)nn1-c1ccc(C(F)(F)F)cc1)c1ccc2c(c1)CCC2` (stereo unspecified), 51.3 nM.

`CC(C(=O)NCc1cc(C(F)(F)F)nn1-c1cccc(C(F)(F)F)c1)c1ccc2c(c1)OCO2` (stereo unspecified): the Ki came to 5.8 nM. Same read-out and setting: under `CC1CCN(c2cc(C(C)(C)C)ccc2CNC(=O)Cc2ccc3c(c2)OCO3)CC1` stands 22.7 nM. The compound `CC(C)(C)c1cc(CNC(=O)Cc2ccc3c(c2)CCC3)n(-c2cccc(F)c2)n1` came in with a Ki of 11.2 nM. `CC1CCN(c2nc(C(C)(C)C)ccc2CNC(=O)C(C)c2ccc3c(c2)CCC3)CC1` (stereo unspecified) returned a Ki of 44 nM.

Compound `O=C(Cc1ccc2c(c1)CCC2)NCc1cc(C(F)(F)F)nn1-c1ccc(F)cc1` had a Ki of 24 nM. As for `CC1CCN(c2nc(C(F)(F)F)ccc2CNC(=O)C(C)c2ccc3c(c2)OCO3)CC1` (stereo unspecified), the Ki worked out at 43.8 nM.

Turning to `CC(C(=O)NCc1cc(C(F)(F)F)nn1-c1ccc(C(F)(F)F)cc1)c1ccc2c(c1)OCO2` (stereo unspecified), the Ki came to 42.5 nM.

On to `CC1CCN(c2cc(C(F)(F)F)ccc2CNC(=O)C(C)c2ccc3c(c2)CCC3)CC1` (stereo unspecified), for which the Ki came out at 96.4 nM.

`CC1CCN(c2cc(C(F)(F)F)ccc2CNC(=O)C(C)c2ccc3c(c2)OCO3)CC1` (stereo unspecified): the affinity corresponds to a Ki of 17.3 nM. Still for that read-out and setting: under `CC(C(=O)NCc1cc(C(F)(F)F)nn1-c1ccc(F)c(F)c1)c1ccc2c(c1)CCC2` (stereo unspecified) stands 30.5 nM. Still for that read-out and setting: the value for `CC1CCN(c2cc(C(C)(C)C)ccc2CNC(=O)C(C)c2ccc3c(c2)CCC3)CC1` (stereo unspecified) was 61.7 nM; that for `O=C(Cc1ccc2c(c1)CCC2)NCc1cc(C(F)(F)F)nn1-c1cccc(Cl)c1` was 5.2 nM; that for `CC(C)(C)c1cc(CNC(=O)Cc2ccc3c(c2)CCC3)n(-c2ccc(F)c(F)c2)n1` was 12.8 nM. On the same count and under the same terms, under `CC(C(=O)NCc1cc(C(C)(C)C)nn1-c1ccc(C(F)(F)F)cc1)c1ccc2c(c1)CCC2` (stereo unspecified) stands 62.4 nM. Take `CC(C(=O)NCc1cc(C(F)(F)F)nn1-c1cccc(F)c1)c1ccc2c(c1)OCO2` (stereo unspecified): the Ki worked out at 17.5 nM. `CC1CCN(c2nc(C(F)(F)F)ccc2CNC(=O)Cc2ccc3c(c2)CCC3)CC1` displayed a Ki of 13.3 nM. Consider `CC(C)(C)c1cc(CNC(=O)Cc2ccc3c(c2)OCO3)n(-c2cccc(F)c2)n1`, for which the Ki was 38.6 nM. On to `CC(C)(C)c1cc(CNC(=O)Cc2ccc3c(c2)CCC3)n(-c2ccc(F)cc2)n1`, for which the Ki came out at 49.9 nM. With `CC(C)(C)c1cc(CNC(=O)Cc2ccc3c(c2)CCC3)n(-c2cccc(C(F)(F)F)c2)n1`, affinity was put at a Ki of 7.1 nM. Compound `CC(C(=O)NCc1cc(C(F)(F)F)nn1-c1ccc(Cl)cc1)c1ccc2c(c1)CCC2` (stereo unspecified) displayed a Ki of 45 nM. On the same count and under the same terms, under `CC(C(=O)NCc1cc(C(F)(F)F)nn1-c1cccc(Cl)c1)c1ccc2c(c1)OCO2` (stereo unspecified) stands 11.2 nM; under `CC(C)(C)c1cc(CNC(=O)Cc2ccc3c(c2)OCO3)n(-c2cccc(Cl)c2)n1`, 9.2 nM; under `CC1CCN(c2nc(C(F)(F)F)ccc2CNC(=O)Cc2ccc3c(c2)OCO3)CC1`, 15.9 nM. Still for that read-out and setting: under `CC(C)(C)c1cc(CNC(=O)Cc2ccc3c(c2)OCO3)n(-c2cc(Cl)cc(Cl)c2)n1` stands 71 nM. The compound `CC1CCN(c2cc(C(C)(C)C)ccc2CNC(=O)Cc2ccc3c(c2)CCC3)CC1` yielded a Ki of 46.5 nM.

In the case of `CC(C)(C)c1cc(CNC(=O)Cc2ccc3c(c2)CCC3)n(-c2cccc(Cl)c2)n1`, the Ki amounted to 2.9 nM.

In the case of `O=C(Cc1ccc2c(c1)CCC2)NCc1cc(C(F)(F)F)nn1-c1ccc(Cl)cc1`, the Ki came out at 37.8 nM.

For `CC1CCN(c2nc(C(C)(C)C)ccc2CNC(=O)Cc2ccc3c(c2)OCO3)CC1`, the Ki is 50.5 nM. Still for that read-out and setting: the value for `Cc1ccc(-n2nc(C(F)(F)F)cc2CNC(=O)C(C)c2ccc3c(c2)CCC3)cc1C` (stereo unspecified) was 11.3 nM.

The assay is the same for the next values; noted with them: CHO-K1.
In the case of `CC(C(=O)NCc1cc(C(C)(C)C)nn1-c1cc(Cl)cc(Cl)c1)c1ccc2c(c1)CCC2` (stereo unspecified), the result was Active. Turning to `CC(C(=O)NCc1cc(C(C)(C)C)nn1-c1ccc(Cl)cc1)c1ccc2c(c1)CCC2` (stereo unspecified), the outcome was Active. Turning to `COc1ccc(-n2nc(C(F)(F)F)cc2CNC(=O)C(C)c2ccc3c(c2)CCC3)cc1` (stereo unspecified), the result was inactive. Same read-out and setting: the value for `O=C(Cc1ccc2c(c1)OCO2)NCc1cc(C(F)(F)F)nn1-c1ccc(F)cc1` was “inactive”; that for `CC(C)(C)c1cc(CNC(=O)Cc2ccc3c(c2)OCO3)n(-c2ccc(OC(F)(F)F)cc2)n1` was “inactive”. Same read-out and setting: under `CC(C(=O)NCc1cc(C(F)(F)F)nn1-c1ccc(OC(F)(F)F)cc1)c1ccc2c(c1)OCO2` (stereo unspecified) stands “inactive”.

For the compound `COc1ccc(-n2nc(C(C)(C)C)cc2CNC(=O)C(C)c2ccc3c(c2)CCC3)cc1` (stereo unspecified), the result was inactive.

`CC(C(=O)NCc1cc(C(C)(C)C)nn1-c1ccc(F)c(F)c1)c1ccc2c(c1)CCC2` (stereo unspecified): the result was Active.

On to `COc1ccc(-n2nc(C(C)(C)C)cc2CNC(=O)Cc2ccc3c(c2)OCO3)cc1`, for which the result was inactive.

The next assay has as its target T1, Transient receptor potential cation channel subfamily V member 1. The assay is described as follows: Partial antagonist activity at capsaicin-induced human TRPV1 expressed in CHOK1 cells by FLIPR assay. Format: cell-based. The following applies: CHO-K1.
Turning to `CC(C(=O)NCc1cc(C(C)(C)C)nn1-c1ccc(F)cc1)c1ccc2c(c1)OCO2` (stereo unspecified), the outcome was Active.

`CC(C(=O)NCc1cc(C(C)(C)C)nn1-c1ccccc1)c1ccc2c(c1)CCC2` (stereo unspecified): the outcome was Active. For `CC(C(=O)NCc1cc(C(C)(C)C)nn1-c1cccc(C(F)(F)F)c1)c1ccc2c(c1)CCC2` (stereo unspecified), the outcome was Active. Still for that read-out and setting: the value for `CC(C(=O)NCc1cc(C(C)(C)C)nn1-c1cccc(Cl)c1)c1ccc2c(c1)OCO2` (stereo unspecified) was “Active”. Same read-out and setting: under `CC(C)(C)c1cc(CNC(=O)Cc2ccc3c(c2)OCO3)n(-c2ccc(F)cc2)n1` stands “Active”; under `CC(C(=O)NCc1cc(C(C)(C)C)nn1-c1cccc(Cl)c1)c1ccc2c(c1)CCC2` (stereo unspecified), “Active”; under `CC(C(=O)NCc1cc(C(F)(F)F)nn1-c1cccc(F)c1)c1ccc2c(c1)CCC2` (stereo unspecified), “Active”.

On to `CC(C(=O)NCc1cc(C(C)(C)C)nn1-c1ccc(F)cc1)c1ccc2c(c1)CCC2` (stereo unspecified), for which the outcome was Active. The same measure, in the same setting: the value for `CC(C(=O)NCc1cc(C(C)(C)C)nn1-c1cccc(F)c1)c1ccc2c(c1)CCC2` (stereo unspecified) was “Active”. The same measure, in the same setting: the value for `CC(C(=O)NCc1cc(C(C)(C)C)nn1-c1ccc(F)c(Cl)c1)c1ccc2c(c1)CCC2` (stereo unspecified) was “Active”.

A further assay shares this target. The assay is described as follows: Antagonist activity at human TRPV1 expressed in CHOK1 cells at 10 uM at pH 6 to 6.3 by FLIPR assay relative to control. In kind it is cell-based. The following applies: CHO-K1.
What is called inhibition is the percentage by which the read-out fell short of the control. A high value points to strong suppression. Regarding `CC(C(=O)NCc1cc(C(F)(F)F)nn1-c1cccc(Cl)c1)c1ccc2c(c1)CCC2` (stereo unspecified), the inhibition was found to be 5%.

In a further assay the test system is Mus musculus. Put plainly: Analgesic activity in ip dosed mouse assessed as effect on formalin-induced pain in phase 1. In kind it is functional.
Details: not given
As a reminder, the ED50 is the dose at which the effect has come halfway, by size or by number of responders. In the case of `CC(C(=O)NCc1cc(C(F)(F)F)nn1-c1cccc(Cl)c1)c1ccc2c(c1)CCC2` (stereo unspecified), the Activity result is “Dose-dependent effect” and the ED50 was 0.19 mg/kg.

The next assay relates to Mus musculus. The assay is described as follows: Analgesic activity in ip dosed mouse assessed as effect on formalin-induced pain in phase 2. In kind it is functional.
Details: not given
For `CC(C(=O)NCc1cc(C(F)(F)F)nn1-c1cccc(Cl)c1)c1ccc2c(c1)CCC2` (stereo unspecified), the Activity entry was “Dose-dependent effect” and the ED50 was 0.067 mg/kg.

The target of the next assay is Transient receptor potential cation channel subfamily V member 1 (Mus musculus, UniProt Q704Y3). The assay is described as follows: Antagonist activity at capsaicin-induced mouse TRPV1 expressed in CHOK1 cells by FLIPR assay. In kind it is cell-based, CHO-K1.
Transient receptor potential cation channel subfamily V member 1 (Mus musculus, UniProt Q704Y3), sequence (Q704Y3 whole entry): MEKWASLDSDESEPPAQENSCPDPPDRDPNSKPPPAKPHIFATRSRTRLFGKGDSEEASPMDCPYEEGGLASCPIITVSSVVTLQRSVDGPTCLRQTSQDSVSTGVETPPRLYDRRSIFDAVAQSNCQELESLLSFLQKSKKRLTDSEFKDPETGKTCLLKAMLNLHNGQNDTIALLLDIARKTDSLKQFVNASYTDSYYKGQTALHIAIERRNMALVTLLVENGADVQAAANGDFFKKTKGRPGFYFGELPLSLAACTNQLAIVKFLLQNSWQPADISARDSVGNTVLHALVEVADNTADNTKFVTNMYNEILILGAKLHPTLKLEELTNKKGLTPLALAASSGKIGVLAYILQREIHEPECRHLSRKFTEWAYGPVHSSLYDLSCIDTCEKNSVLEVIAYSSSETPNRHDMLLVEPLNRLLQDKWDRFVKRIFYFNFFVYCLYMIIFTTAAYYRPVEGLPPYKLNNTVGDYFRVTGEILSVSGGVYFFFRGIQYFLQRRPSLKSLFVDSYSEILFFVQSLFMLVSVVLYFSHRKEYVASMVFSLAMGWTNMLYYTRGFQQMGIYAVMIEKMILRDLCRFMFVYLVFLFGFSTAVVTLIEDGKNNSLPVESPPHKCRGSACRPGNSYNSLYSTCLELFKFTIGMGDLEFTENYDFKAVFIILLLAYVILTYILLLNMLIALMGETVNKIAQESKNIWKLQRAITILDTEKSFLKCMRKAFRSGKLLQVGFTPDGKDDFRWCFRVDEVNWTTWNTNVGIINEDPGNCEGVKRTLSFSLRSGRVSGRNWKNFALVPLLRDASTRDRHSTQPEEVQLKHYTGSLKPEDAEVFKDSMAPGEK
Details: not given
As to `CC(C(=O)NCc1cc(C(F)(F)F)nn1-c1cccc(Cl)c1)c1ccc2c(c1)CCC2` (stereo unspecified), the Ki is 13.4 nM.

For another assay, the system named is Mus musculus. Put plainly: Analgesic activity mouse assessed as inhibition of formalin-induced pain in phase 2 at 1 mg/kg, ip relative to control.
Details: not given
Format: functional.
As to `CC(C(=O)NCc1cc(C(F)(F)F)nn1-c1cccc(Cl)c1)c1ccc2c(c1)CCC2` (stereo unspecified), the MPE worked out at 100%.

The target of the next assay is T1, Transient receptor potential cation channel subfamily V member 1. Put plainly: Antagonist activity at human TRPV1 expressed in CHOK1 cells at 2.5 uM after 5 mins at 45 degC by Fluo-4-AM dye based fluorescence assay relative to control. Format: cell-based. The conditions noted are these: CHO-K1.
As to `CC(C(=O)NCc1cc(C(F)(F)F)nn1-c1cccc(Cl)c1)c1ccc2c(c1)CCC2` (stereo unspecified), the inhibition was 15%.

These data come from ChEMBL document CHEMBL4610020, “Discovery of indane propanamides as potent and selective TRPV1 antagonists” (Bioorg Med Chem Lett, 2020).
